{"source": "paper PMC9580147", "about": "“A novel C-type lectin from Trichinella spiralis mediates larval invasion of host intestinal epithelial cells” (Veterinary Research, 2022)", "target": "T1, rTsCTL (TsCTL, Trichinella spiralis type C lectin) (Trichinella spiralis, UniProt A0A0V1BZI5)", "T1 construct": "gene T01_9679; N-terminal His-tag (pQE-80L), E. coli BL21 (DE3), Ni-NTA purified; 208 aa full length, 24 kDa; C-type lectin domain residues 24-156", "T1 sequence (A0A0V1BZI5 entry or part of it)": "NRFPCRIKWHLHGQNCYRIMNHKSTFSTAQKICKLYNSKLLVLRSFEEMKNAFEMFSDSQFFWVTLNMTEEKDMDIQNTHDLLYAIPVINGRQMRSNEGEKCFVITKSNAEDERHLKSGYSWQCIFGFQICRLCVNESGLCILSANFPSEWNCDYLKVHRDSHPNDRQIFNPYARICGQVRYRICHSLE", "assay": "inhibition of haemagglutination of mouse erythrocytes by rTsCTL", "format": "biochemical", "conditions": "rTsCTL 100 ug/mL; 2% mouse erythrocytes; room temperature, 1 h; Ca2+-dependent lectin; TBS pH 8.0; presumed carbohydrate recognition domain"}
{"smiles": "OC[C@H]1OC(O)[C@@H](O)[C@@H](O)[C@@H]1O", "note": "(stereo partly shown) [mannose]", "values": [{"measurement": "minimum inhibitory dose", "result": 100, "unit": "mM"}]}
